Test results from ChEMBL document CHEMBL1132968, “Substituent effects on the antibacterial activity of nitrogen-carbon-linked (azolylphenyl)oxazolidinones with expanded activity against the fastidious gram-negative organisms Haemophilus influenzae and Moraxella catarrhalis” (2000).
Values after ≈ are worked out from the molar mass of the structure shown.

Experiments:
Type in all cases: functional
[1] = system: Streptococcus pneumoniae; assay: Inhibitory activity against Streptococcus pneumoniae UC9912
[2] = system: Mus musculus; assay: Dose required to cure 50% of Staphylococcus aureus infected mice in the presence of eperezolid when administered orally;vlaue ranges from 1.9-6.6; conditions: po
[3] = system: Moraxella catarrhalis; assay: Inhibitory activity against Moraxella catarrhalis UC30610
[4] = system: Staphylococcus aureus; assay: Inhibitory activity against Methicillin-susceptible Staphylococcus aureus UC9213
[5] = system: Mus musculus; assay: Dose required to cure 50% of Staphylococcus aureus infected mice when administered orally administered; conditions: po
[6] = system: Haemophilus influenzae; assay: Inhibitory activity against Haemophilus influenzae UC30063
[7] = system: Staphylococcus epidermidis; assay: Inhibitory activity against Methicillin-resistant Staphylococcus epidermidis UC12084
[8] = system: Staphylococcus aureus; assay: Inhibitory activity against Methicillin-resistant Staphylococcus aureus UC6685
[9] = system: Enterococcus faecalis; assay: Inhibitory activity against Enterococcus faecalis UC9217
[10] = system: Mus musculus; assay: Dose required to cure 50% of Staphylococcus aureus infected mice when administered orally; conditions: po
[11] = system: Mus musculus; assay: Dose required to cure 50% of Staphylococcus aureus infected mice in the presence of eperezolid when administered orally; conditions: po
[12] = system: Mus musculus; assay: Dose required to cure 50% of Staphylococcus aureus infected mice when orally administered; value ranges from 7.9-32.5; conditions: po
[13] = system: Mus musculus; assay: Dose required to cure 50% of Staphylococcus aureus infected mice in the presence of vancomycin when orally administered; conditions: po
[14] = system: Mus musculus; assay: Dose required to cure 50% of Staphylococcus aureus infected mice in the presence of eperezolid when orally administered.; conditions: po
[15] = system: Mus musculus; assay: Dose required to cure 50% of Staphylococcus aureus infected mice when administered orally;; conditions: po
[16] = system: Mus musculus; assay: Dose required to cure 50% of Staphylococcus aureus infected mice in the presence of eperezolid when administered orally; value ranges from 4.0-26.7; conditions: po
[17] = system: Mus musculus; assay: Dose required to cure 50% of Staphylococcus aureus infected mice in the presence of eperezolid when administered orally; value ranges from 2.9-7.1); conditions: po
[18] = system: Mus musculus; assay: Dose required to cure 50% of Staphylococcus aureus infected mice when administered orally; value ranges from 5.7-14.5; conditions: po
[19] = system: Mus musculus; assay: Dose required to cure 50% of Staphylococcus aureus infected mice when orally administered; value ranges from 4.3-13.3; conditions: po
[20] = system: Mus musculus; assay: Dose(orally administered) required to cure 50% of Staphylococcus aureus infected mice in the presence of eperezolid when orally administered; value ranges from 2.2-6.1; conditions: po
[21] = system: Mus musculus; assay: Dose required to cure 50% of Staphylococcus aureus infected mice when administered orally; value ranges from 5.5-22.1; conditions: po
[22] = system: Mus musculus; assay: Dose required to cure 50% of Staphylococcus aureus infected mice in the presence of vancomycin when administered orally; value ranges from 1.43-3.5; conditions: po
[23] = system: Mus musculus; assay: Dose(orally administered) required to cure 50% of Staphylococcus aureus infected mice in the presence of eperezolid when administered orally; value ranges from 0.8-2.3; conditions: po
[24] = system: Mus musculus; assay: Dose required to cure 50% of Staphylococcus aureus infected mice when administered orally.; conditions: po
[25] = system: Mus musculus; assay: Dose required to cure 50% of Staphylococcus aureus infected mice in the presence of vancomycin when administered orally; value ranges from 2.5-6.4; conditions: po
[26] = system: Mus musculus; assay: Dose required to cure 50% of Staphylococcus aureus infected mice when administered orally; value ranges from 1.4-3.8; conditions: po
[27] = system: Mus musculus; assay: Dose required to cure 50% of Staphylococcus aureus infected mice when administered orally; value ranges from 2.9-8.5; conditions: po
[28] = system: Mus musculus; assay: Dose(orally administered) required to cure 50% of Staphylococcus aureus infected mice; conditions: po

Row | SMILES | MIC [1] | MIC [3] | MIC [4] | MIC [6] | MIC [7] | MIC [8] | MIC [9] | other results
1 | CO/N=C/c1cn(-c2ccc(N3C[C@H](CNC(C)=O)OC3=O)cc2F)nn1 | 0.5 µg/mL (≈ 1.33 µM) | 16 µg/mL (≈ 42.5 µM) | 4 µg/mL (≈ 10.6 µM) | > 16 µg/mL | 1 µg/mL (≈ 2.66 µM) | 2 µg/mL (≈ 5.31 µM) | 4 µg/mL (≈ 10.6 µM) | ED50 [2]: 3.8 mg/kg/day; ED50 [5]: 8.6 mg/kg/day
2 | COC(=O)c1cn(-c2ccc(N3C[C@H](CNC(C)=O)OC3=O)cc2F)nn1 | 1 µg/mL (≈ 2.65 µM) | 16 µg/mL (≈ 42.4 µM) | 4 µg/mL (≈ 10.6 µM) | > 16 µg/mL | 2 µg/mL (≈ 5.3 µM) | 4 µg/mL (≈ 10.6 µM) | 4 µg/mL (≈ 10.6 µM) | ED50 [10]: > 20 mg/kg/day; ED50 [11]: 15.3 mg/kg/day
3 | CC(=O)NC[C@H]1CN(c2ccc(-n3cccc3)c(F)c2)C(=O)O1 | ≤ 0.5 µg/mL | 2 µg/mL (≈ 6.3 µM) | 1 µg/mL (≈ 3.15 µM) | 4 µg/mL (≈ 12.6 µM) | ≤ 0.5 µg/mL | 1 µg/mL (≈ 3.15 µM) | 1 µg/mL (≈ 3.15 µM) | ED50 [12]: 13.2 mg/kg/day; ED50 [13]: 2.7 mg/kg/day
4 | CC(=O)NC[C@H]1CN(c2ccc(-n3cc(/C(C)=N\O)nn3)c(F)c2)C(=O)O1 | 0.5 µg/mL (≈ 1.33 µM) | 4 µg/mL (≈ 10.6 µM) | 4 µg/mL (≈ 10.6 µM) | 16 µg/mL (≈ 42.5 µM) | 2 µg/mL (≈ 5.31 µM) | 4 µg/mL (≈ 10.6 µM) | 8 µg/mL (≈ 21.3 µM) | –
5 | CC(=O)NC[C@H]1CN(c2ccc(-n3ccc(/C(C)=N\O)c3)c(F)c2)C(=O)O1 | 0.25 µg/mL (≈ 0.668 µM) | 2 µg/mL (≈ 5.34 µM) | 2 µg/mL (≈ 5.34 µM) | 8 µg/mL (≈ 21.4 µM) | 0.5 µg/mL (≈ 1.34 µM) | 1 µg/mL (≈ 2.67 µM) | 1 µg/mL (≈ 2.67 µM) | ED50 [14]: 10 mg/kg/day; ED50 [10]: 15 mg/kg/day
6 | CC(=O)NC[C@H]1CN(c2ccc(-n3cnnn3)c(F)c2)C(=O)O1 | 1 µg/mL (≈ 3.12 µM) | 16 µg/mL (≈ 50 µM) | 4 µg/mL (≈ 12.5 µM) | 16 µg/mL (≈ 50 µM) | 2 µg/mL (≈ 6.24 µM) | 2 µg/mL (≈ 6.24 µM) | 2 µg/mL (≈ 6.24 µM) | ED50 [15]: > 20 mg/kg/day; ED50 [16]: 7.8 mg/kg/day
7 | CC(=O)NC[C@H]1CN(c2ccc(-n3cc(C(C)=O)nn3)c(F)c2)C(=O)O1 | 0.5 µg/mL (≈ 1.38 µM) | 8 µg/mL (≈ 22.1 µM) | 1 µg/mL (≈ 2.77 µM) | 8 µg/mL (≈ 22.1 µM) | 1 µg/mL (≈ 2.77 µM) | 1 µg/mL (≈ 2.77 µM) | 2 µg/mL (≈ 5.54 µM) | ED50 [17]: 4.4 mg/kg/day; ED50 [18]: 8.8 mg/kg/day
8 | CO/N=C\c1ccn(-c2ccc(N3C[C@H](CNC(C)=O)OC3=O)cc2F)c1 | 0.25 µg/mL (≈ 0.668 µM) | 16 µg/mL (≈ 42.7 µM) | 1 µg/mL (≈ 2.67 µM) | 16 µg/mL (≈ 42.7 µM) | 0.5 µg/mL (≈ 1.34 µM) | 1 µg/mL (≈ 2.67 µM) | 1 µg/mL (≈ 2.67 µM) | ED50 [19]: 7.3 mg/kg/day; ED50 [20]: 3.5 mg/kg/day
9 | CC(=O)NC[C@H]1CN(c2ccc(-n3ccnc3)c(F)c2)C(=O)O1 | ≤ 0.5 µg/mL | 4 µg/mL (≈ 12.6 µM) | 2 µg/mL (≈ 6.28 µM) | 8 µg/mL (≈ 25.1 µM) | ≤ 0.5 µg/mL | 1 µg/mL (≈ 3.14 µM) | 2 µg/mL (≈ 6.28 µM) | ED50 [21]: 9.5 mg/kg/day; ED50 [22]: 2.2 mg/kg/day
10 | CC(=O)NC[C@H]1CN(c2ccc(-n3ccc(CCCNS(C)(=O)=O)c3)c(F)c2)C(=O)O1 | 0.5 µg/mL (≈ 1.1 µM) | 8 µg/mL (≈ 17.7 µM) | 8 µg/mL (≈ 17.7 µM) | > 16 µg/mL | 2 µg/mL (≈ 4.42 µM) | 4 µg/mL (≈ 8.84 µM) | 2 µg/mL (≈ 4.42 µM) | ED50 [23]: 1.8 mg/kg/day; ED50 [24]: > 20 mg/kg/day
11 | CC(=O)NC[C@H]1CN(c2ccc(N3CCN(C(=O)CO)CC3)c(F)c2)C(=O)O1 [EPEREZOLID] | – | – | – | – | – | – | – | ED50 [25]: 3.9 mg/kg/day; ED50 [26]: 1.9 mg/kg/day
12 | CC(=O)NC[C@H]1CN(c2ccc(N3CCOCC3)c(F)c2)C(=O)O1 [LINEZOLID] | – | – | – | – | – | – | – | ED50 [25]: 3.9 mg/kg/day; ED50 [27]: 5.6 mg/kg/day
13 | CN[C@H](CC(C)C)C(=O)N[C@H]1C(=O)N[C@@H](CC(N)=O)C(=O)N[C@H]2C(=O)N[C@H]3C(=O)N[C@H](C(=O)N[C@H](C(=O)O)c4cc(O)cc(O)c4-c4cc3ccc4O)[C@H](O)c3ccc(c(Cl)c3)Oc3cc2cc(c3O[C@@H]2O[C@H](CO)[C@@H](O)[C@H](O)[C@H]2O[C@H]2C[C@](C)(N)[C@H](O)[C@H](C)O2)Oc2ccc(cc2Cl)[C@H]1O [VANCOMYCIN] | – | – | – | – | – | – | – | ED50 [28]: 3.9 mg/kg/day
